Some test systems named below: KM20L2 colon; CAKI-1 renal; PC-3 prostate; HOP-18 NSCLC; T-47D breast; LXFL 529 NSCLC; HCC-2998 colon; SR leukemia; SK-MEL-2 melanoma; NCI/ADR-RES ovarian; DMS 273 small cell lung; MDA-MB-231 breast.
Experiment in all cases: NCI tumour cell line growth inhibition, 48 h

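Cells were grown in 96-well plates and exposed to each compound for 48 hours at five concentrations; endpoints were interpolated linearly between bracketing concentrations, or set to the highest concentration if not reached. The concentration for 50% growth inhibition is given as GI50. Definition used: TGI = concentration required for complete inhibition of growth.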

Consider `CCOC(=O)NC1C2CC(=O)OC(O2)C1OC(C)=O` (stereo not given), for which the TGI in the experiment with KM20L2 colon, in the experiment with CAKI-1 renal, with PC-3 prostate, with HOP-18 NSCLC, in the experiment with T-47D breast and in the experiment on LXFL 529 NSCLC was above 100 µM each time. Besides, the TGI in the experiment with HCC-2998 colon, in the experiment on SR leukemia, in the experiment with SK-MEL-2 melanoma, with NCI/ADR-RES ovarian, in the experiment with DMS 273 small cell lung and with MDA-MB-231 breast was above 100 µM throughout. Also, the GI50 with PC-3 prostate, in the experiment on T-47D breast, with NCI/ADR-RES ovarian and with MDA-MB-231 breast was above 100 µM throughout.
Take `c1ccc2c(NCCCCCCNc3c4ccccc4nc4ccccc34)c3ccccc3nc2c1`: the TGI in the experiment on KM20L2 colon is 3.05 µM; in the experiment with CAKI-1 renal it was 7.87 µM; with HOP-18 NSCLC, 15.2 µM; in the experiment on T-47D breast, 12.5 µM; in the experiment on LXFL 529 NSCLC it was 2.42 µM; in the experiment on HCC-2998 colon it was 1.76 µM. Besides, the TGI in the experiment with SR leukemia was found to be 0.991 µM; in the experiment on SK-MEL-2 melanoma, 2.75 µM; in the experiment with NCI/ADR-RES ovarian, 64.2 µM; with DMS 273 small cell lung, 1.35 µM; with MDA-MB-231 breast it was 2.05 µM.
Consider `CC(=O)CC(N)=O`, for which the TGI with KM20L2 colon, in the experiment with CAKI-1 renal, in the experiment with HOP-18 NSCLC, in the experiment on LXFL 529 NSCLC, in the experiment on HCC-2998 colon and in the experiment on SR leukemia was above 100 µM each time. Besides, the TGI in the experiment on SK-MEL-2 melanoma and in the experiment on DMS 273 small cell lung was above 100 µM throughout.

The record behind these values is PubChem BioAssay (NCI).
